In this experiment the test system is A549. As to the kind of experiment: Cytotoxicity against Homo sapiens (human) A549 cells assessed as cell viability by MTT assay. Type of experiment: functional, cell-based. (Tetrazolium dyes change colour on reduction, which living cells bring about.)

Values after ≈ are worked out from the molar mass of the structure shown.

The term IC50 denotes the concentration needed to halve the response being measured. In the case of `O=c1c(-c2nnc(-c3ccccc3)o2)cn(C2CC2)c2cc(N3CCNCC3)c(F)cc12`, the IC50 came to 46 mg/L (≈ 107 µM).
`O=c1c(-c2nnc(-c3ccc([N+](=O)[O-])cc3)o2)cn(C2CC2)c2cc(N3CCNCC3)c(F)cc12`: the half-inhibitory concentration (IC50) was determined as 8 mg/L (≈ 16.8 µM).
As for `O=c1c(-c2nnc(-c3ccc(Nc4ccccc4)cc3)o2)cn(C2CC2)c2cc(N3CCNCC3)c(F)cc12`, the concentration for half-maximal inhibition (IC50) came to 52 mg/L (≈ 99.5 µM).
For `O=c1c(-c2nnc(COc3ccc4ccccc4c3)o2)cn(C2CC2)c2cc(N3CCNCC3)c(F)cc12` the value was 16 mg/L (≈ 31.3 µM).
For `O=c1c(-c2nnc(COc3cccc4ccccc34)o2)cn(C2CC2)c2cc(N3CCNCC3)c(F)cc12` the value was 96.2 mg/L (≈ 188 µM); for `O=c1c(-c2nnc(Cc3ccccc3)o2)cn(C2CC2)c2cc(N3CCNCC3)c(F)cc12`, 86 mg/L (≈ 193 µM).
On to `O=c1c(-c2nnc(COc3ccccc3)o2)cn(C2CC2)c2cc(N3CCNCC3)c(F)cc12`, for which the IC50 was determined as 48.6 mg/L (≈ 105 µM).
As for `CCn1cc(-c2nnc(-c3ccccc3)o2)c(=O)c2cc(F)c(N3CCNCC3)cc21`, the IC50 was found to be 112 mg/L (≈ 267 µM).
On to `CCn1cc(-c2nnc(-c3ccc([N+](=O)[O-])cc3)o2)c(=O)c2cc(F)c(N3CCNCC3)cc21`, for which the IC50 is 74.3 mg/L (≈ 160 µM).
As to `CCn1cc(-c2nnc(-c3ccc(Nc4ccccc4)cc3)o2)c(=O)c2cc(F)c(N3CCNCC3)cc21`, the IC50 amounted to 88.6 mg/L (≈ 174 µM).
For the compound `CCn1cc(-c2nnc(COc3ccc4ccccc4c3)o2)c(=O)c2cc(F)c(N3CCNCC3)cc21`, the IC50 amounted to 80.2 mg/L (≈ 161 µM).
In the case of `CCn1cc(-c2nnc(COc3cccc4ccccc34)o2)c(=O)c2cc(F)c(N3CCNCC3)cc21`, the IC50 was 127 mg/L (≈ 254 µM).
For `CCn1cc(-c2nnc(Cc3ccccc3)o2)c(=O)c2cc(F)c(N3CCNCC3)cc21` the value was 118 mg/L (≈ 273 µM); for `CCn1cc(-c2nnc(COc3ccccc3)o2)c(=O)c2cc(F)c(N3CCNCC3)cc21`, 76.8 mg/L (≈ 171 µM); for `CN(C)/N=N/c1[nH]cnc1C(N)=O` [DACARBAZINE], 35 mg/L (≈ 192 µM).

The record behind these values is ChEMBL document CHEMBL3045040, “Synthesis and antiproliferative activity of 1-[(sub)]-6-fluoro-3-[(sub)]-1, 3,4-oxadiazol-2-yl-7-piperazino-1, 4-dihydro-4-quinolinone derivatives” (Med Chem Res, 2007).
